System: rice blast fungi (Pyricularia oryze)
Test: whole plant or invertebrate
Type: in vivo
Conditions: 144 h, read-out: protective value

Row | SMILES | pest or weed control at 100 ppm [%]
1 | COc1ccnc(C(=O)NC2CCC(C)CC2)c1O (stereo not shown) [Example 78, 3-Hydroxy-4-methoxy-N-(4′-methylcyclohexyl)picolinamide] | 80 to 100
2 | COc1ccnc(C(=O)Nc2cccc(Oc3ccccc3)c2)c1O [Example 11, 3-Hydroxy-4-methoxy-3′-phenoxypicolinanilide] | 80 to 100
3 | COc1ccnc(C(=O)NC2CCC2)c1O [Example 81, 3-Hydroxy-4-methoxy-N-cyclobutylpicolinamide] | 80 to 100
4 | COc1ccnc(C(=O)Nc2ccc(Oc3ccccc3)c(C(F)(F)F)c2)c1O [Example 22, 3-Hydroxy-4-methoxy-4′-phenoxy-3′-trifluoromethylpicolinanilide] | 80 to 100
5 | COc1ccnc(C(=O)NCCC2CCCCC2)c1O [Example 63, 3-Hydroxy-4-methoxy-N-(2′-cyclohexylethyl)picolinamide] | 80 to 100
6 | COc1ccnc(C(=O)Nc2ccc(C)cc2)c1O [Example 123, 3-Hydroxy-4-methoxy-4′-methylpicolinanilide] | 80 to 100
7 | COc1ccnc(C(=O)NC(C)c2cccc3ccccc23)c1O (stereo not shown) [Example 30, 3-Hydroxy-4-methoxy-N-(1′-(1-naphthyl)ethyl)picolinamide] | 80 to 100
8 | COc1ccnc(C(=O)Nc2ccc(Cc3ccccc3)cc2)c1O [Example 13, 3-Hydroxy-4-methoxy-4′-benzylpicolinanilide] | 80 to 100
9 | CCCCCCCCNC(=O)c1nccc(OC)c1O [Example 86, 3-Hydroxy-4-methoxy-N-(n-octyl)picolinamide] | 80 to 100
10 | COc1ccnc(C(=O)Nc2ccc(F)cc2)c1O [Example 120, 3-Hydroxy-4-methoxy-4′-fluoropicolinanilide] | 80 to 100
11 | COc1ccnc(C(=O)Nc2c(C)cc(Oc3ccccc3)cc2C)c1O [Example 55, 3-Hydroxy-4-methoxy-2′,6′-dimethyl-4′-phenoxypicolinanilide] | 80 to 100
12 | COc1ccnc(C(=O)NC2CCCCCCCCCCC2)c1O [Example 42, 3-Hydroxy-4-methoxy-N-cyclododecylpicolinamide] | 80 to 100
13 | COc1ccnc(C(=O)Nc2cc(F)cc(F)c2)c1O [Example 122, 3-Hydroxy-4-methoxy-3′,5′-difluoropicolinanilide] | 80 to 100
14 | COc1ccnc(C(=O)Nc2ccc3c(c2)OCCO3)c1O [Example 51, 3-Hydroxy-4-methoxy-(3′,4′-ethylenedioxy)picolinanilide] | 80 to 100
15 | COc1ccnc(C(=O)Nc2ccc(OCc3ccccc3)cc2)c1O [Example 39, 3-Hydroxy-4-methoxy-4′-benzyloxypicolinanilide] | 80 to 100
16 | COc1ccnc(C(=O)Nc2ccc(OC(F)(F)F)cc2)c1O [Example 116, 3-Hydroxy-4-methoxy-4′-trifluoromethoxypicolinanilide] | 80 to 100
17 | COc1ccnc(C(=O)Nc2ccc(Oc3ccccc3)c(C)c2)c1O [Example 23, 3-Hydroxy-4-methoxy-3′-methyl-4′-phenoxypicolinanilide] | 80 to 100
18 | COc1ccnc(C(=O)Nc2ccc(CC(C)(C)C)cc2)c1O [Example 125, 3-Hydroxy-4-methoxy-4′-neopentylpicolinanilide] | 80 to 100
19 | COc1ccnc(C(=O)NC2CCCCCC2)c1O [Example 57, 3-Hydroxy-4-methoxy-N-cycloheptylpicolinamide] | 80 to 100
20 | COc1ccnc(C(=O)Nc2ccc(C3CCCCC3)cc2)c1O [Example 49, 3-Hydroxy-4-methoxy-4′-cyclohexylpicolinanilide] | 80 to 100
21 | COc1ccnc(C(=O)NCCC2=CCCCC2)c1O [Example 53, 3-Hydroxy-4-methoxy-N-(2′-(1-cyclohexenyl)ethyl)picolinamide] | 80 to 100
22 | COc1ccnc(C(=O)NCC2CCCCC2)c1O [Example 75, 3-Hydroxy-4-methoxy-N-(cyclohexylmethyl)picolinamide] | 80 to 100

Row | SMILES | pest or weed control at 100 ppm [%]
23 | COc1ccnc(C(=O)NCCC(C)(C)C)c1O [Example 88, 3-Hydroxy-4-methoxy-N-(3′,3′-dimethylbutyl)picolinamide] | 80 to 100
24 | COc1ccnc(C(=O)NC(C)(C)c2ccccc2)c1O [Example 70, 3-Hydroxy-4-methoxy-N-(1′-methyl-1′-phenylethyl)picolinamide] | 80 to 100
25 | COc1ccnc(C(=O)Nc2ccccc2Oc2ccccc2)c1O [Example 12, 3-Hydroxy-4-methoxy-2′-phenoxypicolinanilide] | 80 to 100
26 | COc1ccnc(C(=O)NC2CCCC2)c1O [Example 79, 3-Hydroxy-4-methoxy-N-cyclopentylpicolinamide] | 80 to 100
27 | CCC(C)NC(=O)c1nccc(OC)c1O (stereo not shown) [Example 82, 3-Hydroxy-4-methoxy-N-(sec-butyl)picolinamide] | 80 to 100
28 | COc1ccnc(C(=O)Nc2ccc(C)cc2F)c1O [Example 121, 3-Hydroxy-4-methoxy-2′-fluoro-4′-methylpicolin-anilide] | 80 to 100
29 | O=C(Nc1ccc(Oc2ccccc2)cc1)c1ncccc1O [Example 1, 3-Hydroxy-4′-phenoxypicolinanilide] | 80 to 100
30 | COc1ccnc(C(=O)Nc2ccccn2)c1O [Example 126, 3-Hydroxy-4-methoxy-N-(2-pyridyl)picolinamide] | 80 to 100
31 | COc1ccnc(C(=O)Nc2ccc(Cl)cc2)c1O [Example 61, 3-Hydroxy-4-methoxy-4′-chloropicolinanilide] | 80 to 100
32 | CCCCCCNC(=O)c1nccc(OC)c1O [Example 83, 3-Hydroxy-4-methoxy-N-(n-hexyl)picolinamide] | 80 to 100
33 | COc1ccnc(C(=O)NC2CCCCC2)c1O [Example 59, 3-Hydroxy-4-methoxy-N-cyclohexylpicolinamide] | 80 to 100
34 | COc1ccnc(C(=O)Nc2cc(C(C)(C)C)cc(C(C)(C)C)c2)c1O [Example 38, 3-Hydroxy-4-methoxy-3′,5′-di-t-butylpicolinanilide] | 80 to 100
35 | COc1ccnc(C(=O)NC2CCCCCCC2)c1O [Example 43, 3-Hydroxy-4-methoxy-N-cyclooctylpicolinamide] | 80 to 100
36 | COc1ccnc(C(=O)NC23CC4CC(CC(C4)C2)C3)c1O [Example 45, 3-Hydroxy-4-methoxy-N-(1-adamantyl)picolinamide] | 80 to 100
37 | COc1ccnc(C(=O)Nc2ccc(Oc3ccccc3)c(Cl)c2)c1O [Example 21, 3-Hydroxy-4-methoxy-3′-chloro-4′-phenoxypicolinanilide] | 80 to 100
38 | COc1ccnc(C(=O)Nc2ccc(C(C)(C)C)cc2)c1O [Example 114, 3-Hydroxy-4-methoxy-4′-t-butylpicolinanilide] | 80 to 100
39 | COc1ccnc(C(=O)NCc2ccc(Oc3ccccc3)cc2)c1O [Example 71, 3-Hydroxy-4-methoxy-N-(4′-phenoxybenzyl)picolinamide] | 80 to 100
40 | COc1ccnc(C(=O)Nc2ccccc2)c1O [Example 60, 3-Hydroxy-4-methoxypicolinanilide] | 80 to 100
41 | COc1ccnc(C(=O)Nc2ccc(C(F)(F)F)cc2)c1O [Example 115, 3-Hydroxy-4-methoxy-4′-trifluoromethylpicolinanilide] | 80 to 100
42 | COc1ccnc(C(=O)NC(C)c2ccccc2)c1O (stereo not shown) [Example 69, 3-Hydroxy-4-methoxy-N-(1′-phenylethyl)picolinamide] | 80 to 100
43 | COc1ccnc(C(=O)Nc2ccc(Oc3ccccc3)cc2)c1O [Example 9, 3-Hydroxy-4-methoxy-4′-phenoxypicolinanilide] | 80 to 100

From patent US7183278B1 (priority 1998, dated 2007)
